Experiment [1] has as its target Serine/threonine-protein kinase MRCK beta (Homo sapiens, UniProt Q9Y5S2).
The target of experiment [2] is ATP-dependent RNA helicase DDX3X (Homo sapiens, UniProt O00571).
For experiment [3], the target named is T1, Ephrin type-B receptor 3 (Homo sapiens, UniProt P54753).
T1 sequence (P54753 whole entry): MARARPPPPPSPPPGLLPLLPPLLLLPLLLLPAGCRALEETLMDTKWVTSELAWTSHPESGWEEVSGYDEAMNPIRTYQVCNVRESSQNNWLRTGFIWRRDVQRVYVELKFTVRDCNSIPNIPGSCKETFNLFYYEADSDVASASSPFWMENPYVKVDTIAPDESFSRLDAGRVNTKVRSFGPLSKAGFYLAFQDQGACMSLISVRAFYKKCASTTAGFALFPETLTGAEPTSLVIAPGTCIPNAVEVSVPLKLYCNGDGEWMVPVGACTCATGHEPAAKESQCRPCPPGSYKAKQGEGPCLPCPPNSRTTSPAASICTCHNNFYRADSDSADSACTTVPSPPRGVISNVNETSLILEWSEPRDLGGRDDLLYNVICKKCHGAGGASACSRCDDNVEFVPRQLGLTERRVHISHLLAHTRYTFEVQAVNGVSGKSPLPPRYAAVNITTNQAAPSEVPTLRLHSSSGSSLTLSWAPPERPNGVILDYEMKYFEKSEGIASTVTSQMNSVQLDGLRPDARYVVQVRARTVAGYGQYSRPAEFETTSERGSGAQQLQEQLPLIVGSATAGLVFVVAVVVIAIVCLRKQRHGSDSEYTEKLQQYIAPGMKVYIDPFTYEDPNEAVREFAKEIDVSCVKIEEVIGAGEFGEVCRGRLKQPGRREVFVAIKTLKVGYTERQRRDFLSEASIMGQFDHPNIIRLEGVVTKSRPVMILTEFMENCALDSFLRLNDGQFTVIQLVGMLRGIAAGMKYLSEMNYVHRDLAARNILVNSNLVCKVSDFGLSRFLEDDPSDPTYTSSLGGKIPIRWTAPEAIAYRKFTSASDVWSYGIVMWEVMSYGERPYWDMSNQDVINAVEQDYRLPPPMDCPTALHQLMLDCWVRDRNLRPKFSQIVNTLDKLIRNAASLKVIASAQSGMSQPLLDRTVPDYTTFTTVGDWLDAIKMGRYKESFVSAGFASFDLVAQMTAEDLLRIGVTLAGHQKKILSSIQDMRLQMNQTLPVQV

Experiment [4] addresses Tyrosine-protein kinase JAK1 (Homo sapiens, UniProt P23458).
Experiment [5] concerns the target Mitogen-activated protein kinase kinase kinase 4 (Homo sapiens, UniProt Q9Y6R4).
The target in experiment [6] is Serine/threonine-protein kinase 26 (Homo sapiens, UniProt Q9P289).
The target of experiment [7] is T2, Tyrosine--tRNA ligase, cytoplasmic (Homo sapiens, UniProt P54577).
T2 sequence (P54577 whole entry): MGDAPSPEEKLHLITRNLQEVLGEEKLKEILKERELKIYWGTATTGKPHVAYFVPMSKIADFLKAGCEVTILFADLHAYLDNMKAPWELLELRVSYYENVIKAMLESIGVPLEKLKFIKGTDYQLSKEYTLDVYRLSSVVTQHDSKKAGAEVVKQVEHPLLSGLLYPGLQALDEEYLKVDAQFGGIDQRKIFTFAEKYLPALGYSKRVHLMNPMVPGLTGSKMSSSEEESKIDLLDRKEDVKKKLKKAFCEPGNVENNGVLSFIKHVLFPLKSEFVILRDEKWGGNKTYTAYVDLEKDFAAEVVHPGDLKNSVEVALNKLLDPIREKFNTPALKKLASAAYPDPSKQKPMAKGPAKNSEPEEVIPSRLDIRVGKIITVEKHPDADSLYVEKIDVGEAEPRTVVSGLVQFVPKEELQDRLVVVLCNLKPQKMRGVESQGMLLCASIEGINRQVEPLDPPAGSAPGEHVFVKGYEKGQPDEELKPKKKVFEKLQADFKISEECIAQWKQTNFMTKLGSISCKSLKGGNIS

For experiment [8], the target named is T3, Serine/threonine-protein kinase 3 (Homo sapiens, UniProt Q13188).
T3 sequence (Q13188 whole entry): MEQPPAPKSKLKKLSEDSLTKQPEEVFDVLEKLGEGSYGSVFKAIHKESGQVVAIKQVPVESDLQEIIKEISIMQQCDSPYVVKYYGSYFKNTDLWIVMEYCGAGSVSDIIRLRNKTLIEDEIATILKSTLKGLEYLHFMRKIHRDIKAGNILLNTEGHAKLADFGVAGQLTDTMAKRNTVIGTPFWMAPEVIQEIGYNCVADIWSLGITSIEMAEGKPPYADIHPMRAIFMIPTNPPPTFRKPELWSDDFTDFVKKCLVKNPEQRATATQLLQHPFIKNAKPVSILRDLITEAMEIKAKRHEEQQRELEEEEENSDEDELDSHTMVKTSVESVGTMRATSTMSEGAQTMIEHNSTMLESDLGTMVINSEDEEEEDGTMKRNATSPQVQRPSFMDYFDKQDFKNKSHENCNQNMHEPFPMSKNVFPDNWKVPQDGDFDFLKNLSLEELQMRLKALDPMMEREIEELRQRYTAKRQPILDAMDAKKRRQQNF

The target of experiment [9] is T4, Inhibitor of nuclear factor kappa-B kinase subunit epsilon (Homo sapiens, UniProt Q14164).
T4 sequence (Q14164 whole entry): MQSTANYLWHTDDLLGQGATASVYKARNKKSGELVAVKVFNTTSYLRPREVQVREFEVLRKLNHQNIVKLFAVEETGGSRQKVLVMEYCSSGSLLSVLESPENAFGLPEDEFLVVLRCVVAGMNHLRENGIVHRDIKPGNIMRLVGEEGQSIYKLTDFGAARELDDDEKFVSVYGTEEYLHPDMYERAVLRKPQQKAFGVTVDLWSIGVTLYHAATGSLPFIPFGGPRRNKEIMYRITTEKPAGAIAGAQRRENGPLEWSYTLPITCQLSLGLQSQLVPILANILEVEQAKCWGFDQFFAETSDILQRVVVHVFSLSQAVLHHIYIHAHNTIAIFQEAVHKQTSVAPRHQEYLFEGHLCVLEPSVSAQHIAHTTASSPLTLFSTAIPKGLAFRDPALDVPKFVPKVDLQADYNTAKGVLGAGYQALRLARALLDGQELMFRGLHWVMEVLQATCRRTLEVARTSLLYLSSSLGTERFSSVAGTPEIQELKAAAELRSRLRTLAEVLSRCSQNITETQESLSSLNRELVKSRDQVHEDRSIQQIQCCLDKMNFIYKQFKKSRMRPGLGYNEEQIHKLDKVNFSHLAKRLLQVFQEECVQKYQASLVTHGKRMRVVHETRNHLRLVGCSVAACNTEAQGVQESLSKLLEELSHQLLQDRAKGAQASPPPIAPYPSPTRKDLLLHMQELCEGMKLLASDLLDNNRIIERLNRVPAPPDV

The results in this text go back to ChEMBL document CHEMBL3991601, “The target landscape of clinical kinase drugs” (Science, 2017).

The source made the active and inactive calls.
Note: in the data inactive means no Kd found up to 30 µM.

ATP-dependent RNA helicase DDX3X, sequence (O00571 whole entry): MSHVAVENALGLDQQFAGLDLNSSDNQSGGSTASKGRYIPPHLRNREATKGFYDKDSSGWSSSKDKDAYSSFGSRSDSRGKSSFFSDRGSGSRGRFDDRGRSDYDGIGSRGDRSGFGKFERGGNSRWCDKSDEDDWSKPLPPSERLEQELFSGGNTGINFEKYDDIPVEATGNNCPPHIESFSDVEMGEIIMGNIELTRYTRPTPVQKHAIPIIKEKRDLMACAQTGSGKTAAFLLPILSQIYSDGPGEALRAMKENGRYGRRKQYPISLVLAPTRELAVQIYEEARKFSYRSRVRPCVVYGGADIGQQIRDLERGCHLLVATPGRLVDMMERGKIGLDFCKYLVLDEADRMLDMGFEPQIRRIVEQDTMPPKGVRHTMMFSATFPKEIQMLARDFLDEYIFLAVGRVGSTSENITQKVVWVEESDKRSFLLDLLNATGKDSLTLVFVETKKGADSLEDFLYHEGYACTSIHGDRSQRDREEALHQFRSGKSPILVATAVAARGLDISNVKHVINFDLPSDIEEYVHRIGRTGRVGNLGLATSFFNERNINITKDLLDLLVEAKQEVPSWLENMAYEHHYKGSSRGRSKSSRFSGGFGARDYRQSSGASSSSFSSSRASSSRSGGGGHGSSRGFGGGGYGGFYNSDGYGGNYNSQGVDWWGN
Mitogen-activated protein kinase kinase kinase 4, sequence (Q9Y6R4 whole entry): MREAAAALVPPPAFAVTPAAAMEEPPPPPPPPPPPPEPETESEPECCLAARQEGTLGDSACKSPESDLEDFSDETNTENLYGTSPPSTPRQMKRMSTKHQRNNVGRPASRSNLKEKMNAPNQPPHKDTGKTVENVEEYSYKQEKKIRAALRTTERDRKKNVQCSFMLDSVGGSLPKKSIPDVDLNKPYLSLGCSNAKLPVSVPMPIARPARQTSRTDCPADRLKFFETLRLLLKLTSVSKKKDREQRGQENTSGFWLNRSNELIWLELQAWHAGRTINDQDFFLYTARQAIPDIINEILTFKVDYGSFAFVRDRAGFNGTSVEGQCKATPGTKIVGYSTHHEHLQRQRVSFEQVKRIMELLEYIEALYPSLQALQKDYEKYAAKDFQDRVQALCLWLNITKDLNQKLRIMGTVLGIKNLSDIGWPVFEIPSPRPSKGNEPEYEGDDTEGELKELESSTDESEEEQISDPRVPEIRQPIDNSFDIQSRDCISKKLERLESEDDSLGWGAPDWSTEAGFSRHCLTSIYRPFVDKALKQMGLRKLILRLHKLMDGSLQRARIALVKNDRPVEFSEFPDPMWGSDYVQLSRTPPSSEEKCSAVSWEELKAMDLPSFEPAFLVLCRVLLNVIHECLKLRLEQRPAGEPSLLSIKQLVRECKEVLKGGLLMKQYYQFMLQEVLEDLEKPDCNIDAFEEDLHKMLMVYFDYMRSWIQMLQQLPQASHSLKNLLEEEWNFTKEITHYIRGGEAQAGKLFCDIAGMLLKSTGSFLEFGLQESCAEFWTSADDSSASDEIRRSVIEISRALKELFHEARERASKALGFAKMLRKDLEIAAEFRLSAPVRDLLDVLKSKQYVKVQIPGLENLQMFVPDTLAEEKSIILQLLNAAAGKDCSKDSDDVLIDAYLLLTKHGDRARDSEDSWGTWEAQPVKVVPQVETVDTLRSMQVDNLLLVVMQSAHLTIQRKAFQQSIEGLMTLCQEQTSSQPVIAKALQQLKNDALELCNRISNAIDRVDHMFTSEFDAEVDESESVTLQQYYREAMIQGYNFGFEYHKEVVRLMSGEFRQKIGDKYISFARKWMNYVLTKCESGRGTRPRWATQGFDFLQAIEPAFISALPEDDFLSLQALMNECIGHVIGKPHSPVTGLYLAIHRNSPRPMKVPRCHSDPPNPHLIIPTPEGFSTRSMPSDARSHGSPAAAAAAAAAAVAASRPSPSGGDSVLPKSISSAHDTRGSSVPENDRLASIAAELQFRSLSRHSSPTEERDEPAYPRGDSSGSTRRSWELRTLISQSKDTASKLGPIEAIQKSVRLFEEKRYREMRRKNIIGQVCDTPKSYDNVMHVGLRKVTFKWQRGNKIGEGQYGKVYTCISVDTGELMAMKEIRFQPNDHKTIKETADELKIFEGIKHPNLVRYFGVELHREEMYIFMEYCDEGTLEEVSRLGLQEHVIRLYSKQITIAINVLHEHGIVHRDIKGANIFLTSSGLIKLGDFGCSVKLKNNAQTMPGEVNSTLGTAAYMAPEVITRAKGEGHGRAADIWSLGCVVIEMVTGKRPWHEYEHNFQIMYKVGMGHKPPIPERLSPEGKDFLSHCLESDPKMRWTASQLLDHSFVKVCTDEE
Tyrosine-protein kinase JAK1, sequence (P23458 whole entry): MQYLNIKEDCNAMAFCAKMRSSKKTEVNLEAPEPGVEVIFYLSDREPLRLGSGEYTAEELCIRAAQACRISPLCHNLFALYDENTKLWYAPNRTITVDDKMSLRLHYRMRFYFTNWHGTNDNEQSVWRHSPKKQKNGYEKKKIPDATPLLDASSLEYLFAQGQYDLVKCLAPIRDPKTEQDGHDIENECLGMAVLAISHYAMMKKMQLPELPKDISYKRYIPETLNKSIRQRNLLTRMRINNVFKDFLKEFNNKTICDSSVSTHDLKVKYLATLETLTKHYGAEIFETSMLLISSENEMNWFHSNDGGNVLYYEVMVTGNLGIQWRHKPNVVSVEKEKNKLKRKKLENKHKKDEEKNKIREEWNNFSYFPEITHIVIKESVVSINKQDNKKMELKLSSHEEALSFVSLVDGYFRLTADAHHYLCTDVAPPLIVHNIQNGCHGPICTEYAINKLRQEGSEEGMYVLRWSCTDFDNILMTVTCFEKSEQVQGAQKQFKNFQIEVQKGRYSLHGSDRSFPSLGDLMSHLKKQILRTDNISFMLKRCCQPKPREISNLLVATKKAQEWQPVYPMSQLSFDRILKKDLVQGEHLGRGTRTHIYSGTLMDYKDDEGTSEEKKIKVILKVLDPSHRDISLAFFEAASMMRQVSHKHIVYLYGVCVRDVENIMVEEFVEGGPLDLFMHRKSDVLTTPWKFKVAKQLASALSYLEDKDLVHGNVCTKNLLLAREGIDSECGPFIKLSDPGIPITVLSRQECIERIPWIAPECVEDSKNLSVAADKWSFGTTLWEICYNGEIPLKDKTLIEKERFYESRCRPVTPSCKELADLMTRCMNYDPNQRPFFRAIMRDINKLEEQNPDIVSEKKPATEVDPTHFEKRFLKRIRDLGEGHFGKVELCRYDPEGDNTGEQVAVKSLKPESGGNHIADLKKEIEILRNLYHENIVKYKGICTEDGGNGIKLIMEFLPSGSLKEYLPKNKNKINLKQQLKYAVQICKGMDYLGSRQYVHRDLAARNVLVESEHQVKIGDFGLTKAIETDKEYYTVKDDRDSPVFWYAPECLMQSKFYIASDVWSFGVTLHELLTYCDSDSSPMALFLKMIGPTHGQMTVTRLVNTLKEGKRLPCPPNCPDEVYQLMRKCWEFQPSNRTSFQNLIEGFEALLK
Serine/threonine-protein kinase MRCK beta, sequence (Q9Y5S2 whole entry): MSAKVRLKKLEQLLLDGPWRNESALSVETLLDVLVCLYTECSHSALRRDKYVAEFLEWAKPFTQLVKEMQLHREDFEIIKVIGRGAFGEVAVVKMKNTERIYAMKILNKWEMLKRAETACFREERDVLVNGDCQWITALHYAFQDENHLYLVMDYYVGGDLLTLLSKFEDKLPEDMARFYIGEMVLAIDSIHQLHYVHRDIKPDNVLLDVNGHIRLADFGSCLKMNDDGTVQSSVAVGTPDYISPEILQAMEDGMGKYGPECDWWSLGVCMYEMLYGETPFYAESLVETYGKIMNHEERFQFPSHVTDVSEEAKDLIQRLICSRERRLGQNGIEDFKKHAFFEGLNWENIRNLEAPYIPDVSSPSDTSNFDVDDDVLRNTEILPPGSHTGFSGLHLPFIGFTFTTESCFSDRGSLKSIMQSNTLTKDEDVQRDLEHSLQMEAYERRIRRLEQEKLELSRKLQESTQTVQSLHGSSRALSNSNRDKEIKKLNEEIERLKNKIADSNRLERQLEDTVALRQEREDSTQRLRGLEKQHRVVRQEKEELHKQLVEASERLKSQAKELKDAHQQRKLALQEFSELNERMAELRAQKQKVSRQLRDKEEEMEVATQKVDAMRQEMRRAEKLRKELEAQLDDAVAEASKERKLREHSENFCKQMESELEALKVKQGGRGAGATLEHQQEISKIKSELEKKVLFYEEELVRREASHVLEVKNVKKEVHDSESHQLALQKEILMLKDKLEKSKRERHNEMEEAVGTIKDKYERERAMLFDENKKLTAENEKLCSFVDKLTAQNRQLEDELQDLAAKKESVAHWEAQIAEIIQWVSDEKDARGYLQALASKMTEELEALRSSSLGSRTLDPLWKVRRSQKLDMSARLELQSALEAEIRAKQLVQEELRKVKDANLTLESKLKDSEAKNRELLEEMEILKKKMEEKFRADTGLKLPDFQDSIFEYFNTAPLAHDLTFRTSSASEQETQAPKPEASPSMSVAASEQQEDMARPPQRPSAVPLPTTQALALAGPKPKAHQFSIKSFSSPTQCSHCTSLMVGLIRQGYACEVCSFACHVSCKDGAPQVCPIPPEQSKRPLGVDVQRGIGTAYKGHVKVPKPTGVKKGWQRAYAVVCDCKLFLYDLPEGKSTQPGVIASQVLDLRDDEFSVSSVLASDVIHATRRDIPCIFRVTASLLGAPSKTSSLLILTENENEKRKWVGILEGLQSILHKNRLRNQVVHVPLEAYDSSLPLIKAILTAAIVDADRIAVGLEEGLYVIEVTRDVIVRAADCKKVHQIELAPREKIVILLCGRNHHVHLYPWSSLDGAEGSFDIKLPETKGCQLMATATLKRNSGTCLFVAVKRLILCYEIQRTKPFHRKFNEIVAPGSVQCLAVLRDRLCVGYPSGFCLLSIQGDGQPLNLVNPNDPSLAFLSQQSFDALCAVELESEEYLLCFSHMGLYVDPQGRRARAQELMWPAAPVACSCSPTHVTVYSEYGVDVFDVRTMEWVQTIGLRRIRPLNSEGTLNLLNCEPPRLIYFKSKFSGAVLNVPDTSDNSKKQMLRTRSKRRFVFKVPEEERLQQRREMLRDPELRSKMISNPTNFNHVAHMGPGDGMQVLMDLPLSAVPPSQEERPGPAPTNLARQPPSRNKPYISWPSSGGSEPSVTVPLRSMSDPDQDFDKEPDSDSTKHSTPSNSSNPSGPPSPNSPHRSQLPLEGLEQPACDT

Consider `C=CCn1c(=O)c2cnc(Nc3ccc(N4CCN(C)CC4)cc3)nc2n1-c1cccc(C(C)(C)O)n1` [ADAVOSERTIB], for which the Kd in experiment [1] was > 30 µM (inactive); in experiment [2] it was > 30 µM (inactive); in experiment [3], > 30 µM (inactive); in experiment [4], > 30 µM (inactive); in experiment [5], 0.052 µM (active); in experiment [6], > 30 µM (inactive). Further, the Kd in experiment [7] is > 30 µM (inactive).

Consider `CCOc1ccn(-c2ccc(F)cc2)c(=O)c1C(=O)Nc1ccc(Oc2ccnc(N)c2Cl)c(F)c1` [BMS-777607], for which the Kd in [1], in experiment [2], in [3], in experiment [4], in experiment [5] and in experiment [6] was > 30 µM (inactive) throughout. Also, the Kd in experiment [8] and in experiment [7] was > 30 µM (inactive) throughout.

For the compound `CC1(C)CNc2cc(NC(=O)c3cccnc3NCc3ccncc3)ccc21` [MOTESANIB], the Kd in experiment [2] and in [7] was > 30 µM (inactive) each time.

For the compound `COc1cc2c(N3CCN(C(=O)Nc4ccc(OC(C)C)cc4)CC3)ncnc2cc1OCCCN1CCCCC1` [TANDUTINIB], the Kd in [2] and in experiment [7] was > 30 µM (inactive) each time.

On to `O=S(=O)(c1cccc2cnccc12)N1CCCNCC1` [FASUDIL], for which the Kd in experiment [1], in [2], in experiment [3], in experiment [4], in experiment [5] and in [6] was > 30 µM (inactive) throughout. Besides, the Kd in experiment [7] was > 30 µM (inactive).

On to `CCN(CCCOc1ccc2c(Nc3cc(CC(=O)Nc4cccc(F)c4)n[nH]3)ncnc2c1)CCOP(=O)(O)O` [BARASERTIB], for which the Kd in [1], in [2], in experiment [3], in experiment [4], in [5] and in experiment [6] was > 30 µM (inactive) throughout. Also, the Kd in experiment [7] is > 30 µM (inactive).

Regarding `N#CCNC(=O)c1ccc(-c2ccnc(Nc3ccc(N4CCOCC4)cc3)n2)cc1` [MOMELOTINIB], the Kd in experiment [2] is > 30 µM (inactive); in experiment [3] it was > 30 µM (inactive); in [9], 0.2 µM (active); in experiment [5], > 30 µM (inactive); in [6], > 30 µM (inactive); in experiment [7] it was > 30 µM (inactive).

With `CN(C)C/C=C/C(=O)Nc1cc2c(Nc3ccc(F)c(Cl)c3)ncnc2cc1O[C@H]1CCOC1` [AFATINIB], the Kd in experiment [2] and in [7] was > 30 µM (inactive) throughout.

`Cn1cnc2c(F)c(Nc3ccc(Br)cc3Cl)c(C(=O)NOCCO)cc21` [SELUMETINIB]: the Kd in experiment [2] and in [7] was > 30 µM (inactive) in each case.

For the compound `COc1cccc(Nc2ncnn3ccc(CN4CC[C@@H](N)[C@H](O)C4)c23)c1` [BMS-690514], the Kd in [1], in experiment [2], in experiment [9], in [4], in experiment [5] and in experiment [6] was > 30 µM (inactive) throughout. Moreover, the Kd in experiment [8] and in experiment [7] was > 30 µM (inactive) throughout.

As for `Cn1cc(-c2[nH]c3cc(NC(=O)[C@H](N)C4CCCCC4)cc4c3c2C=NNC4=O)cn1`, the Kd in experiment [1], in experiment [2], in [3], in experiment [9], in [5] and in experiment [6] was > 30 µM (inactive) throughout. Besides, the Kd in experiment [8] and in [7] was > 30 µM (inactive) throughout.

For `Cn1c(=O)n(-c2ccc(C(C)(C)C#N)cc2)c2c3cc(-c4cnc5ccccc5c4)ccc3ncc21` [DACTOLISIB], the Kd in experiment [1], in experiment [2], in experiment [3], in [4], in experiment [5] and in experiment [6] was > 30 µM (inactive) in each case. Further, the Kd in experiment [8] and in experiment [7] was > 30 µM (inactive) throughout.

Turning to `COc1cc2c(Oc3ccc4[nH]c(C)cc4c3F)ncnc2cc1OCCCN1CCCC1` [CEDIRANIB], the Kd in experiment [2] and in experiment [7] was > 30 µM (inactive) each time.

For `C[C@]1(O)C[C@@H](c2nc(-c3ccc4ccc(-c5ccccc5)nc4c3)c3c(N)nccn32)C1` [LINSITINIB], the Kd in experiment [1], in experiment [2], in [3], in [9], in experiment [4] and in experiment [5] was > 30 µM (inactive) throughout. In addition, the Kd in experiment [6] and in experiment [7] was > 30 µM (inactive) each time.

`CN(c1ncccc1CNc1nc(Nc2ccc3c(c2)CC(=O)N3)ncc1C(F)(F)F)S(C)(=O)=O` [PF-00562271]: the Kd in experiment [1] is > 30 µM (inactive); in experiment [2], > 30 µM (inactive); in experiment [3], > 30 µM (inactive); in experiment [4], > 30 µM (inactive); in experiment [5], > 30 µM (inactive); in experiment [6], 0.012 µM. In addition, in experiment [7], the Kd was > 30 µM (inactive).

Turning to `C[C@@]1(C(=O)Nc2ccc(F)nc2)CCCN1c1nc(Nc2cc(C3CC3)n[nH]2)c2cccn2n1` [BMS-754807], the Kd in experiment [2] and in experiment [7] was > 30 µM (inactive) each time.

The Kd is the free concentration of one partner at which half of the binding sites on the other are occupied at equilibrium, for simple one-to-one binding.
